Like-named read-outs stand apart in the source and are kept apart here.
Columns and labels:
PARP-1 = target: T1, PARP-1 (Homo sapiens, UniProt P09874); test: PARP1 assay (inhibition of PARP, [3H]-NAD+ / biotinylated histone H1, FlashPlate scintillation); format: biochemical
T1 construct: purchased Trevigen (Gaithersburg, Md.); host or cells: E. coli
Procedure: Nicotinamide[2,5′,8-3H]adenine dinucleotide and strepavidin SPA beads were purchased from Amersham Biosiences (Buckinghamshire, U.K.). […] NAD^+, histone, aminobenzamide, 3-amino benzamide and Calf Thymus DNA (dcDNA) were purchased from Sigma (St. Louis, Mo.). […] Biotinylated histone H1 was prepared by treating the protein with Sulfo-NHS-LC-Biotin from Pierce (Rockford, Ill.). The biotinylation reaction was conducted by slowly and intermittently adding 3 equivalents of 10 mM Sulfo-NHS-LC-Biotin to 100 μM Histone H1 in phosphate-buffered saline, pH 7.5, at 4° C. with gentle vortexing over 1 minute followed by subsequent 4° C. incubation for 1 hour. Streptavidin coated (FLASHPLATE PLUS®) microplates were purchased from Perkin Elmer (Waltham, Mass.).
PARP1 assay was conducted in PARP assay buffer containing 50 mM Tris pH 8.0, 1 mM DTT, 4 mM MgCl2. […] Auto reactions utilizing SPA bead-based detection were carried out in 100 μL volumes in white 96 well plates. Reactions were initiated by adding 50 μl of 2× NAD^+ substrate mixture to 50 μL of 2× enzyme mixture containing PARP and DNA. […] 170 μL of the stopped reaction mixtures were transferred to streptavidin FLASHPLATE PLUS®, incubated for 1 hour, and counted using a TOPCOUNT® microplate scintillation counter from Perkin Elmer (Waltham, Mass.).

PARP in C41 cells = target: T2, PARP in C41 cells (Homo sapiens, UniProt P09874); test: Cellular PARP assay (PAR formation after H2O2 DNA damage, anti-PAR immunofluorescence); format: cell-based; conditions: compound 30 minutes, then 1 mM H2O2 for 10 minutes, FITC signal normalized with DAPI, read-out: Cell, EC50
T2 construct: endogenous in cells; host or cells: C41 cells
T2 sequence (P09874 whole entry): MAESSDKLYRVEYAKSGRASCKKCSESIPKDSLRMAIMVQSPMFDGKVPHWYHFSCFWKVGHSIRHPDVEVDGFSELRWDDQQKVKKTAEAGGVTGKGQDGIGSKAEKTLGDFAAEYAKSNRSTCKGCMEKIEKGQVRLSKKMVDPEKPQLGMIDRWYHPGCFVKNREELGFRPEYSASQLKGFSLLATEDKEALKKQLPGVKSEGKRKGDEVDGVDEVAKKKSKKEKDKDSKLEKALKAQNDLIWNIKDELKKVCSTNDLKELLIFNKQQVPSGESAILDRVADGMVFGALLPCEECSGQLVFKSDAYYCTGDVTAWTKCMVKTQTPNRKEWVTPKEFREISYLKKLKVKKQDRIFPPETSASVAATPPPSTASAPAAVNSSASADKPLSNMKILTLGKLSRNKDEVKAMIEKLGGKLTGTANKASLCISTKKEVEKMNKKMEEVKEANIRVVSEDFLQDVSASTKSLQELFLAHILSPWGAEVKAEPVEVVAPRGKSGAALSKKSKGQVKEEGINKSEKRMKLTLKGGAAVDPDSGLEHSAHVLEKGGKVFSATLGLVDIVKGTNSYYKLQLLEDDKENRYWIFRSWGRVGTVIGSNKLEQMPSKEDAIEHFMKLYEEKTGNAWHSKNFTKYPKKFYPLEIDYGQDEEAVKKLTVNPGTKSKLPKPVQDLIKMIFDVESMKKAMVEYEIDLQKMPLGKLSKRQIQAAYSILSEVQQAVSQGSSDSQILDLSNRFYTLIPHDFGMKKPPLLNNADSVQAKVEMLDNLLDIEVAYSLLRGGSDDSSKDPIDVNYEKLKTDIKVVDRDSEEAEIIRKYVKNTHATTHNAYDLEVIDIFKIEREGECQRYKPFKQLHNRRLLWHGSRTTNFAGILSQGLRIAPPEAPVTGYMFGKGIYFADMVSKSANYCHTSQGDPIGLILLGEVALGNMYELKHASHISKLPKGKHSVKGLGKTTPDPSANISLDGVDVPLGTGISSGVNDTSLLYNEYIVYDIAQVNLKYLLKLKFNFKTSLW
Procedure: C41 cells were treated with a compound of this invention for 30 minutes in 96 well plate. PARP was then activated by damaging DNA with 1 mM H2O2 for 10 minutes. The cells were then washed with ice-cold PBS once and fixed with pre-chilled methanol:acetone (7:3) at −20° C. for 10 minutes. After air-drying, the plates were rehydrated with PBS and blocked 5% non-fat dry milk in PBS-TWEEN20® (Sigma, St. Louis, Mo.) (0.05%) (blocking solution) for 30 minutes at room temperature. The cells were incubated with anti-PAR antibody 10H (1:50) in Blocking solution at 37° C. for 60 minutes followed by washing with PBS-TWEEN20® 5 times, and incubation with goat anti-mouse fluorescein 5(6)-isothiocyanate-coupled antibody (1:50) and 1 μg/ml 4′,6-diamidino-2-phenylindole (DAPI) in blocking solution at 37° C. for 60 minutes. […] The PARP activity (FITC signal) was normalized with cell numbers (DAPI).

[1] = recombinant human PARP, 1 nM enzyme, 1.5 μM [3H]-NAD+, inhibition curves at various substrate concentrations, read-out: PARP-1 (Ki)

T1 sequence (P09874 whole entry): as above

Row | Ki (PARP-1) [nM] | Ki (PARP-1; [1]) [nM] | Structure (SMILES) | EC50 (PARP in C41 cells) [nM]
1 | 6 |  | O=c1[nH]c2cc(CN3CCCC3)ccc2n2cccc12 [Example 7, 7-(pyrrolidin-1-ylmethyl)pyrrolo[1,2-a]quinoxalin-4(5H)-one] | 5.4
2 | 32 |  | O=c1[nH]c2ccc(CNC3CC3)cc2n2cccc12 [Example 12, 8-((cyclopropylamino)methyl)pyrrolo[1,2-a]quinoxalin-4(5H)-one] | 13
3 |  | 44 | CC(C)NCc1ccc2[nH]c(=O)c3cccn3c2c1 [Example 13, 8-((isopropylamino)methyl)pyrrolo[1,2-a]quinoxalin-4(5H)-one] | 37
4 | 60 |  | CN(C)Cc1ccc2c(c1)NC(=O)C1CCCN21 (stereo not shown) [Example 44, 7-[(dimethylamino)methyl]-1,2,3,3a-tetrahydropyrrolo[1,2-a]quinoxalin-4(5H)-one] | 143
5 |  | 23 | CN1CCN(CCCNC(=O)c2ccc3c(c2)[nH]c(=O)c2cccn23)CC1 [Example 66, N-[3-(4-methylpiperazin-1-yl)propyl]-4-oxo4,5-dihydropyrrolo[1,2-a]quinoxaline-7-carboxamide] | 32
6 |  | 16 | O=C(c1ccc2c(c1)[nH]c(=O)c1cccn12)N1CCCCC1 [Example 85, 7-(piperidin-1-ylcarbonyl)pyrrolo[1,2-a]quinoxalin-4(5H)-one] | 23
7 |  | 35 | NC1CCN(Cc2ccc3c(c2)[nH]c(=O)c2cccn23)CC1 [Example 86, 7-[(4-aminopiperidin-1-yl)methyl]pyrrolo[1,2-a]quinoxalin-4(5H)-one] | 204
8 |  | 77 | NC1CCN(C(=O)c2ccc3c(c2)[nH]c(=O)c2cccn23)CC1 [Example 87, 7-[(4-aminopiperidin-1-yl)carbonyl]pyrrolo[1,2-a]quinoxalin-4(5H)-one] | 
9 |  | 8690 | O=C(c1ccc2c(c1)[nH]c(=O)c1cccn12)N1CCCNCC1 [Example 88, 7-(1,4-diazepan-1-ylcarbonyl)pyrrolo[1,2-a]quinoxalin-4(5H)-one] | 
